From patent US5230998A, “Method for the prescreening of drugs targeted to the V3 hypervariable loop of the HIV-1 envelope glycoprotein gp 120” (priority 1991, dated 1993)
Values after ≈ are worked out from the molar mass of the structure shown.

Columns and labels:
[1] = molecular target: T1, HIV-1 IIIB glycoprotein gp120 V3 hypervariable loop (Human immunodeficiency virus type 1 BH10, UniProt P03375); assay: Inhibition of the reaction between HIV-1 IIIB gp120 and three distinct antibodies reacting with the V3 hypervariable loop (FIGS. 8-11); format: binding; settings: 60 μg/ml, metal complexes versus uncomplexed
T1 construct: b180 also mentions the V3 loop peptide
Experimental: (§1) FIG. 8 is a bar graph depicting the inhibitory effect of chlorine6 (60 μg/ml) and metal chelates thereof on the reaction between HIV-1 IIIB glycoprotein gp120 and three distinct antibodies reacting with the V3 hypervariable loop of this glycoprotein. The antisera used were rabbit antiserum to a synthetic peptide corresponding to the V3 hypervariable loop of HIV-1 clone BH10, serum of a chimpanzee immunized with V3 hypervariable loop peptides of distinct HIV-1 isolates and monoclonal antibodies (McAb NEA 9305) raised against residues (315-329) of the V3 hypervariable loop of HIV-1 BH10 (Neurath et al (1990), Molec. Immunol., 27, 539-549).
FIG. 9 is a bar graph depicting the inhibitory effect of deuteroporphyrin IX,2-vinyl,4-hydroxymethyl (60 μg/ml) and metal chelates thereof on the reaction between HIV-1 IIIB glycoprotein gp120 and three distinct antibodies reacting with the V3 hypervarible loop of this glycoprotein. The antisera used were rabbit antiserum to a synthetic peptide corresponding to the V3 hypervariable loop of HIV-1 clone BH10, serum of a chimpanzee immunized with V3 hypervariable loop peptides of distinct HIV-1 isolates and monoclonal antibodies (McAb NEA 9305) raised against a synthetic peptide corresponding to residues (315-329) of the V3 hypervariable loop of HIV-1 BH10 (Neurath et al (1990), Molec. Immunol 27, 539-549).
as §1, with “FIG. 10” for “FIG. 8”, “of meso-tetra (4-carboxyphenyl)porphine” for “of chlorine6”, “against a synthetic peptide corresponding to” for “against”, “HIV-1 BH10.” for “HIV-1 BH10”
as §1, with “FIG. 11” for “FIG. 8”, “of uroporphyrin III” for “of chlorine6”, “against a synthetic peptide corresponding to” for “against”, “et al,” for “et al”, “Molec. lmmunol.,” for “Molec. Immunol.,”, “27, 539-549)” for “27, 539-549).”
Monoclonal antibodies (McAbs) recognizing the V3 hypervariable loop of HIV-1 BH 10 (McAb 9305 from DuPont, Wilmington, Del.) and an antiserum from a chimpanzee immunized with a mixture of V3 hypervariable loop peptides from 21 distinct HIV1 isolates (Girard, M., Kieny, M-P., Pinter, A., Barre-Sinoussi, F., Nara, P., Kolbe, H., Kusumi, K., Chaput, A., Reinhart, T., Muchmore, E, Ronco, J., Kaczorek, M., Gomard, E, Gluckman, JC., Fultz, P. N. (1991), "Immunization of Chimpanzees Confers Protection Against Challenge with Human Immunodeficiency Virus", Proc. Natl. Acad. Sci. USA, 88, 542-546) were also used for studies on the inhibitory affect of ATA on the reaction between these antibodies and gp120, using ELISA tests. These tests were carried out similarly as RIA, except that sodium merthiolate (1 mg/ml) was added to the buffers instead of NaN3, and goat antimouse IgG antibodies (Boehringer Mannheim Biochemicals, Indianapolis, Ind.) and goat anti-human IgG antibodies (Sigma, St. Louis, Mo.), respectively, each linked to horseradish peroxidase were used as second antibodies at final dilutions of 1:1,000 in phosphate-buffered saline (PBS) containing 10% goat serum and 0.1% Tween 20. […]

[2] = molecular target: T2, HIV-1 gp120 V3 hypervariable loop (Human immunodeficiency virus type 1 group M subtype B, UniProt P03375); assay: biochemical; format: binding; settings: for Inhibitory activity: Table 1, reaction between HIV-1 gp120 and anti-V3 loop antibodies; for inhibition at 50 µg/mL: read-out: percentage of inhibition; for Inhibitory activity: key: Chemicals with inhibitory activity are indicated by +
T2 construct: Polystyrene plates coated with recombinant gp120 and gp160, respectively; purchased American Bio-Technologies, Inc., Cambridge, Mass; host or cells: baculovirus expression system
Experimental: Wells of 96 well polystyrene plates (Immulon 2, Dynatech Laboratories, Inc., Chantilly, Va.) were coated with synthetic peptides (200 μl; 20μg/ml in 0.1 M Tris-HCl, pH 8.8) overnight at 20° C. The peptides were from the sequence of HIV-1, clone BH 10 envelope glycoproteins gp120 and gp41 (Neurath, A. R., Strick, N., and Lee, E. Y. S. (1990), "B-cell Epitope Mapping of Human Immunodeficiency virus (HIV-1) Envelope Glycoprotein with Long (19 to 36-residue) Synthetic Peptides", J. Gen. Virol., 71., 85-95) and from V3 hypervariable loops of 21 distinct HIV-1 isolates (clones) Neurath, A. R., and Strick, N., (1990), "Confronting the Hypervariability of an Immunodominant Epitope Eliciting Virus Neutralizing Antibodies from the Envelope Glycoprotein of the Human Immunodeficiency Virus Type 1 (HIV-1)", Molec. Immunol., 27, 539-549. The latter peptides corresponded to full-length V3 loops generated by disulfide bonds between N- and C- terminal cysteine residues. After washing with 0.14 M NaCl, 0.01 M Tris, 0.02% NaN3 (TS), the wells were postcoated with a mixture of bovine serum albumin (BSA) and gelatine (10 and 2.5 mg/ml, respectively) in TS. BSA was omitted from the postcoating solution for RIA tests in which antibodies to ATA were used. Polystyrene plates coated with recombinant gp120 and gp160, respectively, (500 ng/well; from American Bio-Technologies, Inc., Cambridge, Mass. and MicroGeneSys, Inc., West Haven, Conn., respectively) were also used for RIA and ELISA tests.
To define sites on gp120/gp41 reacting with ATA, the inhibitory effect of this compound was studied by RIA tests using gp120- and gp160-coated wells, respectively, and antisera (final dilutions 1:150) against synthetic peptides from the entire sequence of gp120/gp41 of HIV-1 BH 10. The preparation and biological properties of these antisera were described elsewhere (Neurath et al., (1990), J. Gen. Virol., 71, 85-95). Each of the antisera was diluted in a mixture of fetal bovine serum and goat serum (9:1) containing 0.1% Tween 20, adjusted to pH 8. ATA (final concentration 50 μg/ml) was added in one set of assays, but was omitted from a parallel set. After incubation overnight at 25° C., the plates were washed with TS. Attached rabbit IgG was detected using ^125 I-labeled anti-rabbit IgG, as described before (Neurath et al., 1990, J. Gen. Virol., 71, 85-95). Similarly, the inhibitory effect of ATA on the reaction of peptides derived from gp120/gp41 and of peptides derived from V3 hypervariable loops from gp120 of distinct HIV-1 isolates with the respective homologous anti-peptide antisera was studied. In the latter case, antisera were diluted 1:1,000 for the assays.
The inhibitory effect of ATA and of other compounds on the reaction between antibodies with predetermined specificity and gp120 (or synthetic peptides derived from it) was determined from the formula: [formula] An analogous formula was used to calculate the percentage of inhibition from optical density readings resulting from ELISA tests.
Chemicals other than ATA were screened for inhibitory activity essentially as described above. […] Chemicals with inhibitory activity established by the respective immunoassays were screened further for antiviral activity.
Commercially available ATA is a mixture of monomers and polymers of distinct molecular masses (Gonzalez et al., (1979) Biochem. Biophys. Acta, 562, 534-545); Cushman et al., (1991), J. Chem., 34, 329-337). The monomers [molecular mass (M.W.)=422.4 daltons] were separated from the polymers. ATA (20 mg/ml in the form of free acid neutralized with 0.4 M NaOH) was dialyzed against H2 O in a dialysis membrane with a molecular mass cutoff of 500 daltons.

[3] = test system: HIV-1; assay: Antiviral activity: inhibition of P24 production in MT-2 cells; format: cell-based, HIV-1 IIIB; set-up: inhibition: dose or concentration left out as unconfirmed; settings: Human immunodeficiency virus 1, MT2, Table 1; for EC50: read-out: EC50 (concentration at which the production of P24 was reduced to 50% of that detected in control cultures); for inhibition: read-out: percentage of inhibition of P24 nucleoprotein production
Experimental: All chemicals were tested at serial two-fold dilutions (1.25-80 μg/ml, prepared from a stock solution containing 10 mg/ml in dimethylsulfoxide). The chemicals were obtained from Aldrich, Milwaukee, Wis. or were synthesized. Their inhibitory activity was determined by two distinct methods, based on inhibition of synthesis of core protein P24 and on protection by the chemicals of cells against the cytopathic effect of HIV-1 (colorimetric method) respectively.
The chemicals were serially diluted in RPMI 1640 medium without phenol red (GIBCO, Grand Island, N.Y.) containing 10% fetal calf serum (FCS). Aliquots of the diluted solutions were added to wells of 96 well plates and mixed with an equal volume of diluted HIV-1 [multiplicity of infection (MOI) =0.0045]. After incubation for 1 hour at 37° C., 25 μl of polybrene (1 μg/ml) treated MT-2 cells (Harada, S., Koyanagi, Y., Yamamoto, N., (1985), "Infection of HTLV-III/LAV in HTLV-I-carrying Cells MT-2 and MT-4 and Application in a Plaque Assay", Science, 229, 563-566), (5,000 cells/well) were added. The mixture was incubated for 1 hour at 37° C. and the volume was adjusted with RPMI 1640 medium with 10% FCS to 200 μl. On the fourth day after incubation at 37° C., 100 μl of culture supernatants were collected from each well and equal volumes of fresh medium were added to the wells. The supernatants were assayed for P24 using a kit from Coulter Immunology (Hialeah, Fla.). On the sixth day, an indicator XTT tetrazolium dye (1 mg/ml; 50 μl/well; PolySciences, Inc., Warrington, Penna.) was added to the cells. After 4 hours, intracellular formazan was determined colorimetrically at 450 nm.
^c Chemicals with inhibitory activity in ELISA (RIA) tests were teste
^d EC50 = concentration at which the production of P24 was […]

| SMILES | inhibitory activity on the interaction between the V3 hypervariable loop of HIV-1-IIIB and antisera [1] | Inhibitory activity [2] | inhibition at 50 µg/mL [2] [%] | EC50 [3] [mg/L] | inhibition [3] [%] |
| --- | --- | --- | --- | --- | --- |
| O=C(O)c1ccc(-c2c3nc(c(-c4ccc(C(=O)O)cc4)c4ccc([n-]4)c(-c4ccc(C(=O)O)cc4)c4nc(c(-c5ccc(C(=O)O)cc5)c5ccc2[n-]5)C=C4)C=C3)cc1.[Co+2] | drastically reduced inhibitory activity |  |  |  |  |
| O=C(O)c1ccc(-c2c3nc(c(-c4ccc(C(=O)O)cc4)c4ccc([n-]4)c(-c4ccc(C(=O)O)cc4)c4nc(c(-c5ccc(C(=O)O)cc5)c5ccc2[n-]5)C=C4)C=C3)cc1.[Mn+2] | drastically reduced inhibitory activity |  |  |  |  |
| C=Cc1c(C)c2cc3nc(cc4[n-]c(cc5nc(cc1[n-]2)C(C)=C5CO)c(C)c4CCC(=O)O)C(CCC(=O)O)=C3C.[Fe+2] | substantially lower than that of the uncomplexed substance or of its Zn derivative |  |  |  |  |
| O=C(O)c1ccc(-c2c3nc(c(-c4ccc(C(=O)O)cc4)c4ccc([n-]4)c(-c4ccc(C(=O)O)cc4)c4nc(c(-c5ccc(C(=O)O)cc5)c5ccc2[n-]5)C=C4)C=C3)cc1.[Fe+2] | drastically reduced inhibitory activity |  |  |  |  |
| O=C(O)c1ccc(-c2c3nc(c(-c4ccc(C(=O)O)cc4)c4ccc([n-]4)c(-c4ccc(C(=O)O)cc4)c4nc(c(-c5ccc(C(=O)O)cc5)c5ccc2[n-]5)C=C4)C=C3)cc1.[Ni+2] | drastically reduced inhibitory activity |  |  |  |  |
| O=C(O)c1ccc(-c2c3nc(c(-c4ccc(C(=O)O)cc4)c4ccc([n-]4)c(-c4ccc(C(=O)O)cc4)c4nc(c(-c5ccc(C(=O)O)cc5)c5ccc2[n-]5)C=C4)C=C3)cc1.[Cr+2] | drastically reduced inhibitory activity |  |  |  |  |
| O=C(O)c1ccc(-c2c3nc(c(-c4ccc(C(=O)O)cc4)c4ccc([n-]4)c(-c4ccc(C(=O)O)cc4)c4nc(c(-c5ccc(C(=O)O)cc5)c5ccc2[n-]5)C=C4)C=C3)cc1.[Cu+2] | drastically reduced inhibitory activity |  |  |  |  |
| O=c1cc2oc3cc(O)c(O)cc3c(-c3ccccc3)c-2cc1O [compound 128] |  | + | 58.6 | 27 (≈ 84.3 µM) | 85 |
| c1cnc2c(c1)CCCCCCCCCC2 [compound 67] |  | + | 36.8 | 37 (≈ 170 µM) | 53 |
| C1=Cc2nc1c(-c1ccncc1)c1ccc([nH]1)c(-c1ccncc1)c1nc(c(-c3ccncc3)c3ccc([nH]3)c2-c2ccncc2)C=C1 [compound 161] |  | + | 66.4 | > 80 | 0 |
| CC1=C(CCC(=O)O)c2cc3[nH]c(cc4nc(cc5[nH]c(cc1n2)c(C(O)CO)c5C)C(C(O)CO)=C4C)c(C)c3CCC(=O)O (centres unmarked) [compound 150] |  | + | 43.3 | 38.2 (≈ 60.6 µM) | 99 |
